These results are taken from patent US6417194B1, “Quinolines and quinazolines useful in therapy” (Pfizer, Inc., priority 1997, dated 2002).

The structures appear in SMILES notation.

The experiment relates to human prostate. The experiment in a line: Contractile responses of human prostate. Particulars: antagonist affinity estimate against (−)-noradrenaline contractions of prostatic tissue strips; single antagonist concentration, incubated 2 hours. As to the method: Contractile Responses of Human Prostate
Prostatic tissue was cut into longitudinal strips (approximately 3×2×10 mm) and suspended in organ baths under a resting tension of 1 g in Krebs Ringer bicarbonate of the following composition (mM): NaCl (119), KCl (4.7), CaCl2 (2.5), KH2PO4 (1.2), MgSO4 (1.2), NaHCO3 (25), glucose (11), and gassed with 95% O2/5% CO2.
The solution also contained […]. Tissues were exposed to a sensitising dose of (−)-noradrenaline ([…]) and washed over a 45 minute period. Isometric contractions were obtained in response to cumulative additions of (−)-noradrenaline to obtain control curves in all tissues. A further curve was then generated in the presence or absence of antagonist (incubated for 2 hours). Antagonist affinity estimates (pA2) were determined using a single concentration of competing antagonist, […] where the dose ratio (DR), relative to corresponding controls, was produced by a single concentration of antagonist [A], assuming competitive antagonism and Schild regression close to unity.

As to `COc1cc2nc(N3CCCN(C(=O)N4CCOCC4)CC3)nc(N)c2cc1OCC1CCC1` [Example 3, 4-Amino-6-cyclobutylmethyloxy-7-methoxy-2-[4-(4-morpholinecarbonyl)-1,4-diazepan-1-yl]quinazoline], the pA2 value is 9.2.
